{
  "source": "patent US8215314B2",
  "about": "“Photochemical tissue bonding” (The General Hospital Corporation, priority 2000, dated 2012)",
  "key": {"rabbit corneas": {"test_system": "rabbit corneas", "assay": "In vivo PTB of 6-mm penetrating keratoplasty incisions anchored by sutures, bursting pressure", "details": "1% Rose Bengal, 191 J/cm2, 6-mm PK incision with 4-16 sutures", "description": "(§1) PTB was performed in vivo in New Zealand rabbits to repair two types of corneal wounds.\nIn Group II, 6-mm Penetrating Keratoplasy (PK) incisions anchored by 4-16 sutures were performed in 16 rabbit corneas. Half of the corneas in each group underwent PTB where 1% Rose Bengal dye was applied to the wound edges followed by laser irradiation at fluence of 191 J/cm2. Photoactivation was performed with a 514 nm Argon Laser and a 532-nm CW Nd: YAG laser. Wound leak and incisional bursting pressure were determined in vivo in the immediate postoperative period."}, "esophageal keratinocytes": {"test_system": "esophageal keratinocytes", "assay": "NADH-diaphorase viability of esophageal keratinocytes after PTB", "assay_type": "cell-based", "description": "The viability of the photoactivated cells was also assessed. Nicotinamide adenine dinucleotide (NADH-diaphorase) staining was carried out based on the methods described by Heisterkamp J et al. (1999) Lasers Sug Med 25(3): 257-62 and Neumann R A et al. (1991) J Am Acad Dermatol 25: 991-8. Following irradiation, the keratinocyte layer was gently peeled away from the collagen gel and was exposed overnight to an incubation solution consisting of nicotinamide adenine dinucleotide (NADH) and nitroblue tetrazolium chloride (NBT) (Sigma). The viability of the cells was indicated by the formation of a water-insoluble blue precipitate (diformazan), which corresponded to areas with NADH-diaphorase activity. The insoluble blue precipitate was dissolved in DMSO (an organic solvent) and quantified by measuring the optical density (OD) at 550 nm against a commercially available standard. The negative control, RB control, and the laser control composites were also tested using identical conditions. It was determined for the negative control, RB control, laser control, 50 J/cm^2 composite sample, and the 100 J/cm^2 composite sample that the levels of corresponding blue precipitate were 143, 151, 158, 173 and 158 diformazan/nM after photochemical tissue bonding treatment (FIG. 16)."}, "[1]": {"test_system": "epidermal cells of skin grafts", "assay": "Trypan blue exclusion assay of epidermal cells from skin grafts after PTB", "assay_type": "cell-based, mini pigs", "details": "0.1% RB", "description": "The cell viability in the skin grafts was further assessed quantitatively by trypan blue exclusion assay. The upper grafts were chosen to be examined because they absorbed more light, and therefore would be damaged to a greater extent, if any, than the lower ones. Following irradiation, the upper skin grafts were incubated with 1 mg/ml dispase (Life Technologies, Rockville, Md.) in PBS overnight at 4° C. The epidermis was gently peeled off from the dermis and washed twice in PBS. Epidermal cells were released by incubating the epidermis with 0.25% trypsin-EDTA (Cellgro) at 37° C. for 15 minutes, accompanied by gentle agitation. Fetal calf serum (FCS) was added to inhibit trypsin activity and the cell suspension was then centrifuged at 2500 rpm for 10 mins. The cell pellet was washed once and re-suspended in PBS. The trypan blue exclusion assay was performed after mixing equal volumes of cell suspension and 0.2% (w/v) trypan blue and loading onto a hemocytometer. The number of viable cells released from each skin graft was calculated. After preparing a single cell suspension from intact epidermis, the cell viability was assessed (FIG. 11)."}, "[2]": {"test_system": "collagen gel implant on rat latissimus dorsi muscle flap", "assay": "Adherence of collagen-based esophagus implant to host muscle flap after PTB, ex vivo", "details": "for adherence of collagen implant on muscle flap: 0.1% RB, 514 nm", "description": "An ex vivo experimental system was developed to investigate the effect of PTB on the bonding of an engineered, collagen-based, esophagus implant to host muscle flap tissue without the need for silicon tubing.\nFIG. 14 provides an overview of the experimental methods. Esophageal keratinocytes were seeded on uncontracted collagen gel (ICN Biomedicals) for about one week until confluence was reached. A 1×1 cm piece of seeded collagen gel was removed (implant) from the culture dish and a suture loop was laced through at its edge. An equivalently-sized section of rat latissimus dorsi muscle flap was secured onto a flat plastic surface with sutures. Rose bengal (RB) at 0.1% (w/v), a photosensitizer having an absorption maximum and absorption coefficient of 550 nm and 33,000 dm^3/mo/cm at 514 nm, respectively, was applied to the collagen side of the implant and the surface of the muscle flap and incubated for about two minutes. The esophagus implant and the muscle flap were approximated with the dye-treated surfaces facing each other by gently pressing over the esophagus implants without damaging the keratinocyte layer. Excess dye was removed by aspiration and blotting. […]\nFollowing irradiation, the adherence of the collagen-based esophageal implant to the host muscle flap was tested for the 50 J/cm^2 sample, 100 J/cm^2 sample, and the three controls, using a tensiometer (Chartillon) coupled to a force transducer (DFA2, Ametek). The adherence (N/cm^2; N=force applied, cm^2=area of collagen implant) of the collagen implant on the muscle flap was determined from the force-deflection curve, generated by plotting the amount of peeling force applied to the collagen implant to the force plate displacement level of the force transducer. It was observe that the mean adherence measurements determined for the negative, RB, and laser controls were 0.05, 0.06, and 0.07 N/cm^2, respectively (FIG. 15). In contrast, the adherence measurements determined for the 50 and 100 J/cm^2 composite samples were 0.15 and 0.13 N/cm^2, respectively (FIG. 15)."}, "[3]": {"test_system": "rabbit (New Zealand White) corneas", "assay": "In vivo PTB of 3.5-mm corneal incisions, incisional bursting pressure", "details": "1.5 mM RB", "description": "as §1\nIn group I 3.5-mm incisions were performed in 20 rabbit (New Zealand White) corneas. Dose and laser irradiance were varied in subgroups of five or more eyes for each condition and appropriate control eyes. Photoactivation was performed with a 514 nm Argon Laser. Wound leak and incisional bursting pressure of the treated and untreated rabbit eyes was determined in vivo, with the animals under anesthetic.\nGroup I wounds were healed using, e.g., 191 J/cm2, applying 1.5 mM RB. The immediate in vivo bursting pressure was 495±10 mm Hg for PTB treated eyes. Under the same conditions the values of the busting pressure in the control eye varied from 15 to 60 mm Hg. One day after surgery, the bursting pressure was the same for PTB treated eyes and control eyes (approximately 450±125 mmHg). At 14 days, the bursting pressure exceeded 500 mm Hg in both PTB-treated and control eyes."}, "[4]": {"assay": "Absorption maxima and absorption coefficients of photosensitizers", "assay_type": "physicochemical", "excerpt": "The photosensitizers were used as received with the exception of N-HPT which was recrystallized twice from aqueous ethanol before use."}},
  "data": [
    {"smiles": "O=C([O-])c1c(Cl)c(Cl)c(Cl)c(Cl)c1-c1c2cc(I)c(=O)c(I)c-2oc2c(I)c([O-])c(I)cc12.[Na+].[Na+]", "note": "[Rose Bengal]", "values": [
      {"measurement": "immediate bursting pressure", "setting": "rabbit corneas", "result": "410±70", "unit": "mm Hg"},
      {"measurement": "level of blue precipitate (NADH-diaphorase viability)", "setting": "esophageal keratinocytes; 0.1% RB, 50 J/cm^2", "result": 173, "unit": "diformazan/nM"},
      {"measurement": "level of blue precipitate (NADH-diaphorase viability)", "setting": "esophageal keratinocytes; 0.1% RB, 100 J/cm^2", "result": 158, "unit": "diformazan/nM"},
      {"measurement": "level of blue precipitate (NADH-diaphorase viability)", "setting": "esophageal keratinocytes; RB control: RB treated, nonirradiated", "result": 151, "unit": "diformazan/nM"},
      {"measurement": "number of viable cells per skin graft vs control", "setting": "[1]; 0.56 W/cm^2, 126, 252 and 504 J/cm^2", "result": "not significantly different"},
      {"measurement": "number of viable cells relative to control group", "setting": "[1]; 504 J/cm^2", "result": "~80", "unit": "%"},
      {"measurement": "adherence of collagen implant on muscle flap", "setting": "[2]; 0.25 W/cm^2, 50 J/cm^2", "result": 0.15, "unit": "N/cm^2"},
      {"measurement": "adherence of collagen implant on muscle flap", "setting": "[2]; 0.25 W/cm^2, 100 J/cm^2", "result": 0.13, "unit": "N/cm^2"},
      {"measurement": "mean adherence of collagen implant on muscle flap", "setting": "[2]; RB control: 0.1% RB treated, nonirradiated", "result": 0.06, "unit": "N/cm^2"},
      {"measurement": "immediate in vivo bursting pressure", "setting": "[3]; 191 J/cm2, 514 nm, 3.5-mm incision", "result": "495±10", "unit": "mm Hg"},
      {"measurement": "bursting pressure at 14 days", "setting": "[3]; 191 J/cm2, also in control eyes", "result": "exceeded 500 mm Hg"},
      {"measurement": "bursting pressure one day after surgery", "setting": "[3]; 191 J/cm2, same as control eyes", "result": "approximately 450±125 mmHg"},
      {"measurement": "absorption maximum", "setting": "[4]", "result": 550, "unit": "nm"},
      {"measurement": "absorption coefficient at the laser wavelength used", "setting": "[4]; RB at 514 nm, Fl at 488 nm, MB at 661 nm, R-5-P at 488 nm, N-HPT at 351 nm", "result": 33000, "unit": "dm^3 mol^−1 cm^−1"}
    ]}
  ]
}
